Patent US20240066003A1, “NEURODEVELOPMENTAL DISORDER THERAPY” (Anavex Life Sciences Corp., priority 2016, published 2024)

Columns and labels:
[1] = system: muscarinic acetylcholine receptors; conditions: believed to bind; cited from earlier work
[2] = system: heterozygous MECP2knockout mice (HET); experiment: Clasping of hind legs; type: in vivo; conditions: 8 weeks of age; 30 mg/kg p.o. daily
Description: (§1) Studies employed wild type (WT) mice and heterozygous MECP2knockout mice (HET) All mice were provided by Jackson Laboratory, Bar Harbor, Maine. HET mice were Bird mice (Jackson Laboratories, Bar Harbor, ME, B6.129P2(C)-Mecp2^tm1.1Bird/Stock Number: 003890) were obtained by crossing het females with wild type (WT) males (C57B/6J). […] Mecp2 females testing at ˜8 and ˜12 weeks of age WT—vehicle (0.25% MC/dH2O) HET—vehicle (0.25% MC/dH2O) HET—A2-733 (10 mg/kg) HET—A2-733 (30 mg/kg) Chronic dosing (p.o.) daily, starting at ˜5.5 weeks of age and continuing through the 12-week behavioral testing time point 60 min pre-treatment during behavioral testing. Mice are lifted gently by the tail with front limbs remaining on surface. Clasping of hind legs is noted (normal is a spread in the hind legs).

[3] = system: amyloid β25-35 peptide (Aβ25-35) injected mice; conditions: cited from earlier work
[4] = system: relapsing-remitting multiple sclerosis; experiment: Example 9 gadolinium-enhancing MRI lesions in relapsing-remitting multiple sclerosis patient; type: in vivo, human; conditions: person, oral 30 mg every other day for 3 months, up to month 6
Description: A person presents with relapsing-remitting multiple sclerosis. They begin treatment with oral doses of A2-73 at 30 mg every other day for 3 months.

[5] = system: heterozygous MECP2knockout mice (HET); experiment: NeuroCube gait analysis; type: in vivo
Description: Studies employed wild type (WT) mice and heterozygous MECP2knockout mice (HET) All mice were provided by Jackson Laboratory, Bar Harbor, Maine. HET mice were Bird mice (Jackson Laboratories, Bar Harbor, ME, B6.129P2(C)-Mecp2^tm1.1Bird/Stock Number: 003890) were obtained by crossing het females with wild type (WT) males (C57B/6J). […] Mecp2 females testing at ˜8 and ˜12 weeks of age WT—vehicle (0.25% MC/dH2O) HET—vehicle (0.25% MC/dH2O) HET—A2-733 (10 mg/kg) HET—A2-733 (30 mg/kg) Chronic dosing (p.o.) daily, starting at ˜5.5 weeks of age and continuing through the 12-week behavioral testing time point 60 min pre-treatment during behavioral testing. Neurological testing via a platform that employs computer vision to detect changes in gait geometry and gait dynamics in rodent models of neurological disorders, pain, and neuropathies. Complex bio-informatics algorithms similar to those used in SmartCube® are employed to detect a disease phenotype and screen compounds. (NeuroCube, PsychoGenics, Tarrytown NY) A platform that employs computer vision to detect changes in gait geometry and gait dynamics in rodent models of neurological disorders, pain, and neuropathies. Mice are allowed to walk in the chamber for 5 min. When the paw touches the screen, LED light reflects creating bright spots. Images are captured and processed using proprietary computer vision and bio-informatics data mining algorithms.

[6] = system: heterozygous MECP2knockout mice (HET); experiment: Startle/PPI; type: in vivo
Description: Studies employed wild type (WT) mice and heterozygous MECP2knockout mice (HET) All mice were provided by Jackson Laboratory, Bar Harbor, Maine. HET mice were Bird mice (Jackson Laboratories, Bar Harbor, ME, B6.129P2(C)-Mecp2^tm1.1Bird/Stock Number: 003890) were obtained by crossing het females with wild type (WT) males (C57B/6J). […] Mecp2 females testing at ˜8 and ˜12 weeks of age WT—vehicle (0.25% MC/dH2O) HET—vehicle (0.25% MC/dH2O) HET—A2-733 (10 mg/kg) HET—A2-733 (30 mg/kg) Chronic dosing (p.o.) daily, starting at ˜5.5 weeks of age and continuing through the 12-week behavioral testing time point 60 min pre-treatment during behavioral testing. The acoustic startle measures an unconditioned reflex response to external auditory stimulation. Mice are placed in the prepulse inhibition (PPI) chambers for a 5 min session of white noise (70 dB) habituation. Then the session starts with a habituation block of 6 presentations of the startle stimulus alone, followed by 10 PPI blocks of 6 different types of trials [null (no stimuli), startle (120 dB), startle plus prepulse (4, 8 and 12 dB over background noise i.e. 74, 78 or 82 dB) and prepulse alone (82 dB)] presented at random within each block. The amount of inhibition of the normal startle is determined and expressed as a percentage of the basic startle response (from startle alone trials), excluding the startle response of the first habituation block.

[7] = Body weight of Mecp2 HET mice under chronic dosing; type: in vivo; conditions: 30 mg/kg p.o. daily, 6.5 weeks after dosing began; Treatment×Age effect p<0.001
Description: as §1, with “[…] FIG. 1 There was a significant Treatment×Age effect (p<0.001), where mice treated” for “Mice are lifted gently by the tail”, “A2-733 (30 mg/kg) weighed less than vehicle-treated mutant mice 6.5 weeks after dosing began.” for “front limbs remaining on surface. Clasping of hind legs is noted (normal is a spread in the hind legs).”

Compound: CN(C)CC1CCOC1(c1ccccc1)c1ccccc1.Cl (stereo not drawn) [A2-73, tetrahydro-N,N-dimethyl-2,2-diphenyl-3-furanmethanamine hydrochloride]
- affinity for muscarinic acetylcholine receptors [1]: low micromolar range
- clasping vs vehicle-treated mutant mice [2]: clasped less
- Aβ25-35-induced P-Akt decrease and P-GSK-3β increase ([3]; Lahmy et al. 2013): blocked
- hyperphosphorylation of Tau on physiological (AT-8) and pathological (AT-100) epitopes ([3]; in the dose-range tested): attenuated
- oxidative stress, caspases induction, cellular loss and learning and memory deficits ([3]; mice one week after the i.v. injection of oligomeric Aβ25-35 (Villard et al. 2011)): attenuating
- Aβ25-35-induced endogenous Aβ1-42 seeding ([3]; mouse, in vivo): decreasing
- number of total gadolinium-enhancing lesions on monthly brain MRI [4]: significantly lower number
- NeuroCube GAIT, Het vehicle v. Het AV2-73 ([5]; 8 week, 10 mg/kg, p > 0.09): 63, p > 0.09
- NeuroCube Body Motion, Het vehicle v. Het AV2-73 ([5]; 8 week, 10 mg/kg, p > 0.20): 60, p > 0.20
- NeuroCube Correlation, Het vehicle v. Het AV2-73 ([5]; 8 week, 10 mg/kg, p > 0.40): 56, p > 0.40
- NeuroCube Paw Positioning, Het vehicle v. Het AV2-73 ([5]; 8 week, 10 mg/kg, p > 0.57): 53, p > 0.57
- NeuroCube Overall, Het vehicle v. Het AV2-73 ([5]; 8 week, 10 mg/kg, p > 0.69): 53, p > 0.69
- NeuroCube Paw Features, Het vehicle v. Het AV2-73 ([5]; 8 week, 10 mg/kg, p > 0.78): 52, p > 0.78
- NeuroCube Body Motion, Het vehicle v. Het AV2-73 ([5]; 8 week, 30 mg/kg, p < 0.003): 81, p < 0.003
- NeuroCube Correlation, Het vehicle v. Het AV2-73 ([5]; 8 week, 30 mg/kg, p < 0.005): 76, p < 0.005
- NeuroCube GAIT, Het vehicle v. Het AV2-73 ([5]; 8 week, 30 mg/kg, p < 0.05): 69, p < 0.05
- NeuroCube Overall, Het vehicle v. Het AV2-73 ([5]; 8 week, 30 mg/kg, p > 0.24): 62, p > 0.24
- NeuroCube Paw Positioning, Het vehicle v. Het AV2-73 ([5]; 8 week, 30 mg/kg, p > 0.36): 57, p > 0.36
- NeuroCube Paw Features, Het vehicle v. Het AV2-73 ([5]; 8 week, 30 mg/kg, p > 0.56): 55, p > 0.56
- NeuroCube separation versus Het vehicle ([5]; 8 weeks of age): no separation
- recovery of the overall signature ([5]; 8 weeks of age, NeuroCube): 9-17%
- NeuroCube GAIT, Het vehicle v. Het AV2-73 ([5]; 12 week, 10 mg/kg, p > 0.29): 57, p > 0.29
- NeuroCube Paw Features, Het vehicle v. Het AV2-73 ([5]; 12 week, 10 mg/kg, p > 0.35): 56, p > 0.35
- NeuroCube Paw Positioning, Het vehicle v. Het AV2-73 ([5]; 12 week, 10 mg/kg, p > 0.57): 53, p > 0.57
- NeuroCube Correlation, Het vehicle v. Het AV2-73 ([5]; 12 week, 10 mg/kg, p > 0.70): 53, p > 0.70
- NeuroCube Overall, Het vehicle v. Het AV2-73 ([5]; 12 week, 10 mg/kg, p > 0.70): 53, p > 0.70
- NeuroCube Body Motion, Het vehicle v. Het AV2-73 ([5]; 12 week, 10 mg/kg, p > 0.71): 52, p > 0.71
- NeuroCube Correlation, Het vehicle v. Het AV2-73 ([5]; 12 week, 30 mg/kg, p < 0.03): 69, p < 0.03
- NeuroCube Body Motion, Het vehicle v. Het AV2-73 ([5]; 12 week, 30 mg/kg, p < 0.04): 68, p < 0.04
- NeuroCube Overall, Het vehicle v. Het AV2-73 ([5]; 12 week, 30 mg/kg, p > 0.21): 61, p > 0.21
- NeuroCube GAIT, Het vehicle v. Het AV2-73 ([5]; 12 week, 30 mg/kg, p > 0.37): 57, p > 0.37
- NeuroCube Paw Positioning, Het vehicle v. Het AV2-73 ([5]; 12 week, 30 mg/kg, p > 0.62): 53, p > 0.62
- NeuroCube Paw Features, Het vehicle v. Het AV2-73 ([5]; 12 week, 30 mg/kg, p > 0.65): 53, p > 0.65
- PPI, treatment differences ([6]; 8 weeks of age): No treatment differences
- startle response vs vehicle-treated mutant mice ([6]; 8 weeks of age, 30 mg/kg p.o. daily): increased startle response
- startle response vs vehicle-treated mutant mice, outliers removed ([6]; 12 weeks of age, 30 mg/kg, outliers removed, p<0.01): increased startle
- startle response, treatment effect ([6]; 12 weeks of age, all data, p<0.08): trend of a treatment effect
- PPI treatment interaction, post hoc ([6]; 12 weeks of age, interaction p<0.05): did not reveal any significant post hoc differences
- body weight vs vehicle-treated mutant mice [7]: weighed less
